Data: patent US10618916B2, “Heterocyclic compounds as immunomodulators” (Incyte Corporation, priority 2018, dated 2020)
One block for each molecule: values may come before it.

Tests used:
[1] = target: PD-1/PD-L1 protein/protein interaction (recombinant human PD-L1 and human PD-1) (Homo sapiens (Human), UniProt Q9NZQ7); assay: Homogeneous Time-Resolved Fluorescence (HTRF) PD-1/PD-L1 binding assay
How it was run: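 Human PD-L1 (19-238, C-His; 10 nM final) and PD-1 (25-167, C-Fc; 3 nM final) preincubated 40 min with inhibitor in PBS pH 7.4, 0.05% Tween-20, 0.1% BSA, 1% DMSO, 25 °C. Eu-anti-human IgG (1 nM) and anti-His-APC (20 nM) added for 60 min; 665/620 nm ratio; IC50 from percent-control curves.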

[2] = system: U2OS/PD-L1 cells and Jurkat-PD-1-SHP cells; assay: Src homology region 2 domain-containing phosphatase (SHP) assay; format: cell-based; details: Homo sapiens, U2OS
How it was run: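 U2OS/PD-L1 and Jurkat-PD-1-SHP cells (5000 each per well) were co-incubated with compound for 2 h at 37 °C in RPMI1640 with 1% FBS, 0.05% DMSO final. PathHunter chemiluminescence was read after 1 h at room temperature, and IC50 was fitted from percent of DMSO-control activity.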

[3] = system: PD-L1 aAPC/CHO-K1 cells and Jurkat-PD-1-NFAT effector cells; assay: Nuclear factor of activated T-cells (NFAT) assay; format: cell-based; details: Cricetulus griseus, CHO-K1
How it was run: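 CHO-K1 cells expressing PD-L1 aAPC were co-cultured with Jurkat-PD-1-NFAT effector cells in RPMI 1640 with 1% FBS and compound (0.4% DMSO; top concentration 2 μM) for 24 h at 37 °C. Bio-Glo luminescence was read, fold induction normalised to DMSO wells, and EC50 fitted from percent of control compound activity.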

[4] = target: PD-L1 (Homo sapiens (Human), UniProt Q9NZQ7); assay: PD-L1 whole blood internalization assay; format: cell-based; details: 24 HR, PD-L1 expression on CD14+ cells, human interferon γ
PD-L1, sequence (Q9NZQ7 19-290): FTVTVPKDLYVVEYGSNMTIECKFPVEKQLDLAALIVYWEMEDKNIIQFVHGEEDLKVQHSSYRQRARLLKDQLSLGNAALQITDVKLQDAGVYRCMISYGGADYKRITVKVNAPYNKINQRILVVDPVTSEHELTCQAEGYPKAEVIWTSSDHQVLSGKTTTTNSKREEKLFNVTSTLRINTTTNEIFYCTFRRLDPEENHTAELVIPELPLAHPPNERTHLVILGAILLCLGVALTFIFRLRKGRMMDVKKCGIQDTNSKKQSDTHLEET

PD-1/PD-L1 protein/protein interaction (recombinant human PD-L1 and human PD-1), sequence (Q9NZQ7 19-238): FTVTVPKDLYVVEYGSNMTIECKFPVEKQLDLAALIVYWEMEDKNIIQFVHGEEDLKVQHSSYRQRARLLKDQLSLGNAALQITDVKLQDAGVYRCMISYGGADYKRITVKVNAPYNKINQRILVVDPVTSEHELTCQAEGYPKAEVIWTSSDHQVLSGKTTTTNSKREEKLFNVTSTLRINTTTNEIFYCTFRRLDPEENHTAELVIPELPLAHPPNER

Compound: Cn1c(C(=O)Nc2cccc(-c3cccc(NC(=O)c4nc5c(n4C)CCN(C[C@@H](O)CO)C5)c3Cl)c2Cl)nc2c1CCN(CCC13CCC(C(=O)O)(CC1)C3)C2 [Example 11, (R)-4-(2-(2-((2,2′-dichloro-3′-(5-(2,3-dihydroxypropyl)-1-methyl-4,5,6,7-tetrahydro-1H-imidazo[4,5-c]pyridine-2-carboxamido)-[1,1′-biphenyl]-3-yl)carbamoyl)-1-methyl-1,4,6,7-tetrahydro-5H-imidazo[4,5-c]pyridin-5-yl)ethyl)bicyclo[2.2.1]heptane-1-carboxylic acid]
IC50 [1]: 5 to 10 nM | IC50 [2]: 10 to 100 nM | EC50 [3]: 10 to 100 nM | IC50 [4]: 100 to 500 nM

Compound: Cc1c(NC(=O)c2nc3c(n2C)CCN(C2CCC(O)CC2)C3)cccc1-c1cccc(NC(=O)c2nc3c(n2C)CCN(CCC24CCC(C(=O)O)(CC2)C4)C3)c1Cl (single isomer, unassigned) [61 (compound 1), 4-(2-(2-((2-chloro-3′-(5-(4-hydroxycyclohexyl)-1-methyl-4,5,6,7-tetrahydro-1H-imidazo[4,5-c]pyridine-2-carboxamido)-2′-methyl-[1,1′-biphenyl]-3-yl)carbamoyl)-1-methyl-1,4,6,7-tetrahydro-5H-imidazo[4,5-c]pyridin-5-yl)ethyl)bicyclo[2.2.1]heptane-1-carboxylic acid]
IC50 [1]: ≤ 5 nM | IC50 [2]: ≤ 10 nM | EC50 [3]: 10 to 100 nM | IC50 [4]: 10 to 100 nM

Compound: Cc1c(NC(=O)c2nc3c(n2C)CCN(CC24CCC(C(=O)O)(CC2)C4)C3)cccc1-c1cccc(NC(=O)c2nc3c(n2C)CCN(CCC24CCC(C(=O)O)(CC2)C4)C3)c1Cl [Example 35, 4-((2-((3′-(5-(2-(4-carboxybicyclo[2.2.1]heptan-1-yl)ethyl)-1-methyl-4,5,6,7-tetrahydro-1H-imidazo[4,5-c]pyridine-2-carboxamido)-2′-chloro-2-methyl-[1,1′-biphenyl]-3-yl)carbamoyl)-1-methyl-1,4,6,7-tetrahydro-5H-imidazo[4,5-c]pyridin-5-yl)methyl)bicyclo[2.2.1]heptane-1-carboxylic acid]
IC50 [1]: ≤ 5 nM | IC50 [2]: 10 to 100 nM | EC50 [3]: 100 to 500 nM | IC50 [4]: 100 to 500 nM

Compound: Cn1c(C(=O)Nc2cccc(-c3cccc(NC(=O)c4nc5c(n4C)CCN(C[C@H](O)CO)C5)c3Cl)c2Cl)nc2c1CCN(CCC13CCC(C(=O)O)(CC1)C3)C2 [Example 12, (S)-4-(2-(2-((2,2′-dichloro-3′-(5-(2,3-dihydroxypropyl)-1-methyl-4,5,6,7-tetrahydro-1H-imidazo[4,5-c]pyridine-2-carboxamido)-[1,1′-biphenyl]-3-yl)carbamoyl)-1-methyl-1,4,6,7-tetrahydro-5H-imidazo[4,5-c]pyridin-5-yl)ethyl)bicyclo[2.2.1]heptane-1-carboxylic acid]
IC50 [1]: ≤ 5 nM | IC50 [2]: ≤ 10 nM | EC50 [3]: 10 to 100 nM | IC50 [4]: 10 to 100 nM

Compound: Cn1c(C(=O)Nc2cccc(-c3cccc(NC(=O)c4nc5c(n4C)CCN(CC(=O)O)C5)c3Cl)c2Cl)nc2c1CCN(CCC13CCC(C(=O)O)(CC1)C3)C2 [Example 19, 4-(2-(2-((3′-(5-(carboxymethyl)-1-methyl-4,5,6,7-tetrahydro-1H-imidazo[4,5-c]pyridine-2-carboxamido)-2,2′-dichloro-[1,1′-biphenyl]-3-yl)carbamoyl)-1-methyl-1,4,6,7-tetrahydro-5H-imidazo[4,5-c]pyridin-5-yl)ethyl)bicyclo[2.2.1]heptane-1-carboxylic acid]
IC50 [1]: ≤ 5 nM | IC50 [2]: ≤ 10 nM | EC50 [3]: 10 to 100 nM | IC50 [4]: 10 to 100 nM

Compound: C[C@H](O)CN1CCc2c(nc(C(=O)Nc3cccc(-c4cccc(NC(=O)c5nc6c(n5C)CCN(CCC57CCC(C(=O)O)(CC5)C7)C6)c4Cl)c3Cl)n2C)C1 [Example 14, (S)-4-(2-(2-((2,2′-dichloro-3′-(5-(2-hydroxypropyl)-1-methyl-4,5,6,7-tetrahydro-1H-imidazo[4,5-c]pyridine-2-carboxamido)-[1,1′-biphenyl]-3-yl)carbamoyl)-1-methyl-1,4,6,7-tetrahydro-5H-imidazo[4,5-c]pyridin-5-yl)ethyl)bicyclo[2.2.1]heptane-1-carboxylic acid]
IC50 [1]: ≤ 5 nM | IC50 [2]: ≤ 10 nM | EC50 [3]: 10 to 100 nM | IC50 [4]: 10 to 100 nM

Compound: Cn1c(C(=O)Nc2cccc(-c3cccc(NC(=O)c4nc5c(n4C)CCN(C(CO)CO)C5)c3Cl)c2Cl)nc2c1CCN(CCC13CCC(C(=O)O)(CC1)C3)C2 [Example 10, 4-(2-(2-((2,2′-dichloro-3′-(5-(1,3-dihydroxypropan-2-yl)-1-methyl-4,5,6,7-tetrahydro-1H-imidazo[4,5-c]pyridine-2-carboxamido)-[1,1′-biphenyl]-3-yl)carbamoyl)-1-methyl-1,4,6,7-tetrahydro-5H-imidazo[4,5-c]pyridin-5-yl)ethyl)bicyclo[2.2.1]heptane-1-carboxylic acid]
IC50 [1]: ≤ 5 nM | IC50 [2]: ≤ 10 nM | EC50 [3]: 10 to 100 nM | IC50 [4]: 10 to 100 nM

The next lines start with results.

IC50 [1]: ≤ 5 nM | IC50 [2]: ≤ 10 nM | IC50 [4]: 10 to 100 nM
Compound: Cc1c(NC(=O)c2nc3c(n2C)CCN(CCc2ccc(C(=O)O)cc2)C3)cccc1-c1cccc(NC(=O)c2nc3c(n2C)CCN(CCC24CCC(C(=O)O)(CC2)C4)C3)c1Cl [Example 36, 4-(2-(2-((3′-(5-(4-carboxyphenethyl)-1-methyl-4,5,6,7-tetrahydro-1H-imidazo[4,5-c]pyridine-2-carboxamido)-2-chloro-2′-methyl-[1,1′-biphenyl]-3-yl)carbamoyl)-1-methyl-1,4,6,7-tetrahydro-5H-imidazo[4,5-c]pyridin-5-yl)ethyl)bicyclo[2.2.1]heptane-1-carboxylic acid]
EC50 [3]: 10 to 100 nM

IC50 [1]: ≤ 5 nM | IC50 [2]: ≤ 10 nM | IC50 [4]: 100 to 500 nM
Compound: Cc1c(NC(=O)c2nc3c(n2C)CCN(CCC24CCC(C(=O)O)(CC2)C4)C3)cccc1-c1cccc(NC(=O)c2nc3c(n2C)CCN(CCC24CCC(C(=O)O)(CC2)C4)C3)c1C [Example 54, 4,4′-(((((2,2′-dimethyl-[1,1′-biphenyl]-3,3′-diyl)bis(azanediyl))bis(carbonyl))bis(1-methyl-1,4,6,7-tetrahydro-5H-imidazo[4,5-c]pyridine-2,5-diyl))bis(ethane-2,1-diyl))bis(bicyclo[2.2.1]heptane-1-carboxylic acid)]
EC50 [3]: 10 to 100 nM

IC50 [1]: ≤ 5 nM | IC50 [2]: ≤ 10 nM | IC50 [4]: 10 to 100 nM
Compound: Cn1c(C(=O)Nc2cccc(-c3cccc(NC(=O)c4nc5c(n4C)CCN([C@H]4CC[C@@](C)(C(=O)O)CC4)C5)c3Cl)c2Cl)nc2c1CCN(CCC13CCC(C(=O)O)(CC1)C3)C2 [Example 65, 4-(2-(2-((3′-(5-(cis-4-carboxy-4-methylcyclohexyl)-1-methyl-4,5,6,7-tetrahydro-1H-imidazo[4,5-c]pyridine-2-carboxamido)-2,2′-dichloro-[1,1′-biphenyl]-3-yl)carbamoyl)-1-methyl-1,4,6,7-tetrahydro-5H-imidazo[4,5-c]pyridin-5-yl)ethyl)bicyclo[2.2.1]heptane-1-carboxylic Acid]
EC50 [3]: 10 to 100 nM
